pIC50: −log10 of the molar value.
Experiments:
[1] = system: IL-1β secretion from human whole blood; experiment: Inhibition of IL-1β secretion from whole blood; format: cell-based; conditions: human whole blood diluted 1:2, LPS 5 ng/ml, 18 hours, ELISA
Experimental: Human blood is freshly drawn from healthy donors and diluted 1:2 in PBS. To 500 μl of diluted blood […] of prediluted test compound in RPMI medium and […] LPS (5 ng/ml final concentration on the plate) are added (LPS, Serotype 0111:B4, Sigma L3012). After stimulation for 18 hours supernatants are collected and assayed for IL-1β levels using the appropriate ELISA kit (R&D systems).

rat cortical neurons = experiment: Hypoxia-induced apoptosis of rat cortical neurons; format: cell-based, Wistar rat; conditions: Cortical neurone, 95% N2/5% CO2, Cell Death Detection ELISA (DNA fragmentation)
Experimental: Cortical neurons are dissociated from Wistar rat embryos (E17) by a modification of the procedure of Rogers et al. 1997, Brain Res. Bulletin, 44:131. Briefly, cerebral cortices are isolated aseptically from 15-20 Wistar rat embryos. A cell suspension is prepared by mincing the cerebral cortices and digesting them with papain. Cells are washed with ovomucoid enzyme inhibitor and DNaseI and plated onto Poly-D lysine coated plates in high glucose DMEM containing 10% heat-inactivated fetal calf serum, L-glutamine, penicillin and streptomycin. The yield of neurons is […] per embryo and they are 80-90% viable as assessed by Trypan blue exclusion.
The neurons are cultured in complete medium at 37° C. in a normal atmosphere for 48 hours prior to the hypoxia experiments. For hypoxia, the normal cell medium is replaced by oxygen-depleted serum-free medium. Cells are incubated in an atmosphere of 95% N2/5% CO2 for various lengths of time. Compounds are dissolved in DMSO at 100 mM then diluted in medium and added to the culture from time=0. The level of apoptosis is measured using a Cell Death Detection ELISA kit (Roche) which detects DNA fragmentation. Plates are read at 405 nm. Controls included cells cultured in aerobic conditions in serum-containing medium (+serum) and cells cultured in aerobic conditions in serum-deprived medium (−serum).

pIC50 [1]	SMILES	pIC50 (rat cortical neurons)
> 6.30	CCCC(=O)Nc1cccn([C@@H](CC)C(=O)N[C@@H](CC(=O)O)C(=O)COc2c(F)c(F)cc(F)c2F)c1=O [Compound 3, (S,S)-3-[2-(3-Butyrylamino-2-oxo-2H-pyridin-1-yl)-butyrylamino]-4-oxo-5-(2,3,5,6-tetrafluoro-phenoxy)-pentanoic acid]	5.00 to 6.00
5.30 to 6.30	CC[C@@H](C(=O)N[C@@H](CC(=O)O)C(=O)COc1c(F)c(F)cc(F)c1F)n1cccc(NC(=O)COC)c1=O [Compound 6, (S,S)-3-{2-[3-(2-Methoxy-acetylamino)-2-oxo-2H-pyridin-1-yl]-butyrylamino}-4-oxo-5-(2,3,5,6-tetrafluoro-phenoxy)-pentanoic acid]	5.00 to 6.00
5.30 to 6.30	CC[C@@H](C(=O)N[C@@H](CC(=O)O)C(=O)COc1c(F)c(F)cc(F)c1F)n1cccc(NC(=O)c2ccoc2)c1=O [Compound 8, (S,S)-3-(2-{3-[(Furan-3-carbonyl)-amino]-2-oxo-2H-pyridin-1-yl}-butyrylamino)-4-oxo-5-(2,3,5,6-tetrafluoro-phenoxy)-pentanoic acid]	5.00 to 6.00
5.30 to 6.30	CC[C@@H](C(=O)N[C@@H](CC(=O)O)C(=O)COc1c(F)c(F)cc(F)c1F)n1cccc(NC(=O)N2CCCC2)c1=O [Compound 16, (S,S)-4-Oxo-3-(2-{2-oxo-3-[(pyrrolidine-1-carbonyl)-amino]-2H-pyridin-1-yl}-butyrylamino)-5-(2,3,5,6-tetrafluoro-phenoxy)-pentanoic acid]	5.00 to 6.00
5.30 to 6.30	CC[C@@H](C(=O)N[C@@H](CC(=O)O)C(=O)COc1c(F)c(F)cc(F)c1F)n1cccc(NS(=O)(=O)c2ccccc2)c1=O [Compound 21, (S,S)-3-[2-(3-Benzenesulfonylamino-2-oxo-2H-pyridin-1-yl)-butyrylamino]-4-oxo-5-(2,3,5,6-tetrafluoro-phenoxy)-pentanoic acid]	5.00 to 6.00
5.30 to 6.30	CC[C@@H](C(=O)N[C@@H](CC(=O)O)C(=O)COc1c(F)c(F)cc(F)c1F)n1cccc(Nc2nccs2)c1=O [Compound 38, (S,S)-4-Oxo-3-{2-[2-oxo-3-(thiazol-2-ylamino)-2H-pyridin-1-yl]-butyrylamino}-5-(2,3,5,6-tetrafluoro-phenoxy)-pentanoic acid]	> 6.00

Second part, the compound before the results:

SMILES	pIC50 [1]	pIC50 (rat cortical neurons)
CC[C@@H](C(=O)N[C@@H](CC(=O)O)C(=O)COc1c(F)c(F)cc(F)c1F)n1cccc(NC(=O)c2cccnc2)c1=O [Compound 9, (S,S)-4-Oxo-3-(2-{2-oxo-3-[(pyridine-3-carbonyl)-amino]-2H-pyridin-1-yl}-butyrylamino)-5-(2,3,5,6-tetrafluoro-phenoxy)-pentanoic acid]	5.30 to 6.30	5.00 to 6.00
CC[C@@H](C(=O)N[C@@H](CC(=O)O)C(=O)COc1c(F)c(F)cc(F)c1F)n1cccc(NC(=O)c2ccsn2)c1=O [Compound 10, (S,S)-3-(2-{3-[(Isothiazole-3-carbonyl)-amino]-2-oxo-2H-pyridin-1-yl}-butyrylamino)-4-oxo-5-(2,3,5,6-tetrafluorophenoxy)-pentanoic acid]	> 6.30	> 6.00
CC[C@@H](C(=O)N[C@@H](CC(=O)O)C(=O)COc1c(F)c(F)cc(F)c1F)n1cccc(NC(=O)Cc2ccccc2)c1=O [Compound 12, (S,S)-4-Oxo-3-[2-(2-oxo-3-phenylacetylamino-2H-pyridin-1-yl)-butyrylamino]-5-(2,3,5,6-tetrafluoro-phenoxy)-pentanoic acid]	5.30 to 6.30	> 6.00
CCNC(=O)Nc1cccn([C@@H](CC)C(=O)N[C@@H](CC(=O)O)C(=O)COc2c(F)c(F)cc(F)c2F)c1=O [Compound 14, (S,S)-3-{2-[3-(3-Ethyl-ureido)-2-oxo-2H-pyridin-1-yl]-butyrylamino}-4-oxo-5-(2,3,5,6-tetrafluoro-phenoxy)-pentanoic acid]	> 6.30	5.00 to 6.00
CC[C@@H](C(=O)N[C@@H](CC(=O)O)C(=O)COc1c(F)c(F)cc(F)c1F)n1cccc(NC(=O)N(CC)CC)c1=O [Compound 15, (S,S)-3-{2-[3-(3,3-Diethyl-ureido)-2-oxo-2H-pyridin-1-yl]-butyrylamino}-4-oxo-5-(2,3,5,6-tetrafluoro-phenoxy)-pentanoic acid]	5.30 to 6.30	> 6.00
CC[C@@H](C(=O)N[C@@H](CC(=O)O)C(=O)COc1c(F)c(F)cc(F)c1F)n1cccc(NS(=O)(=O)C(C)C)c1=O [Compound 20, (S,S)-4-Oxo-3-{2-[2-oxo-3-(propane-2-sulfonylamino)-2H-pyridin-1-yl]-butyrylamino}-5-(2,3,5,6-tetrafluoro-phenoxy)-pentanoic acid]	5.30 to 6.30	> 6.00
CC(C)[C@@H](C(=O)N[C@@H](CC(=O)O)C(=O)COc1c(F)c(F)cc(F)c1F)n1cccc(NC(=O)Cc2ccccc2)c1=O [Compound 23, (S,S)-3-[3-Methyl-2-(2-oxo-3-phenylacetylamino-2H-pyridin-1-yl)-butyrylamino]-4-oxo-5-(2,3,5,6-tetrafluoro-phenoxy)-pentanoic acid]	5.30 to 6.30	
CCS(=O)(=O)Nc1cccn([C@H](C(=O)N[C@@H](CC(=O)O)C(=O)COc2c(F)c(F)cc(F)c2F)C(C)C)c1=O [Compound 24, (S,S)-3-[2-(3-Ethanesulfonylamino-2-oxo-2H-pyridin-1-yl)-3-methyl-butyrylamino]-4-oxo-5-(2,3,5,6-tetrafluoro-phenoxy)-pentanoic acid]		5.00 to 6.00
CCCNc1cccn([C@@H](CC)C(=O)N[C@@H](CC(=O)O)C(=O)COc2c(F)c(F)cc(F)c2F)c1=O [Compound 39, (S,S)-4-Oxo-3-[2-(2-oxo-3-propylamino-2H-pyridin-1-yl)-butyrylamino]-5-(2,3,5,6-tetrafluoro-phenoxy)-pentanoic acid]	5.30 to 6.30	> 6.00

Source: patent US7960415B2, “Caspase inhibitors and uses thereof” (Vertex Pharmaceutical Incoporated, priority 2003, dated 2011)
